According to patent publication US12635683B2, “Preservation of natural and bioengineered tissues and methods of storing and transport” (LifeNet Health, priority 2021, dated 2026):

System: Epiderm construct
Assay: Construct viability after vitrification and rewarming (metabolic activity)
Format: cell-based, human
Conditions: αT and QVD added together to culture medium before and after vitrification
Procedure: Tissue Culture: Human epidermal models were obtained from commercial sources and maintained according to their specifications. All constructs were incubated in appropriate media for 24 hours under physiological tissue culture conditions before initiating experiments. Fresh controls were used in each experiment and experimental treatment groups were assessed over 4-5 days post-rewarming.
Vitrification Methods: The constructs were gradually infiltrated with precooled vitrification formulations at 4° C. in six steps with 0%, 12.5%, 25%, 50%, 75% and 100% of each formulation to achieve a final cryoprotectant concentration. After rewarming, the vitrification solution was removed in seven sequential steps at 4° C. into culture medium as previously described (see Song et al., Vitreous cryopreservation maintains the function of vascular grafts, Nature Biotechnology, 8(3):296-9, Epub 2000/03/04, doi:10.1038/73737, PubMed PMID: 10700144 (2000); and Song et al., Vitreous Preservation of Rabbit Articular Cartilage, Cell Preservation Technology, 2 (1); 67-74 (2004)).
Once loaded with vitrification solution the construct can be cooled to storage temperature and rewarmed using several methods. (1) The constructs were placed in glass scintillation vials (Diam.×H, 25 mm×60 mm) containing 1.5 mL of pre-cooled vitrification solution with 0.3 mL solution inside the well insert. Then 1 mL of 2-methylbutane (isopentane, freezing point: −160° C., density: 0.62) was placed on top of the vitrification solution in the vial and 0.2 mL inside the well insert at 4° C. to prevent direct air contact. Samples were cooled rapidly (approximately 45° C./minute) to −100° C. by placing the samples in a pre-cooled bath containing isopentane in a −135° C. mechanical storage freezer. Upon achieving −100° C. the specimens were removed from the bath and stored at −135° C. in the mechanical storage freezer, which results in slow cooling (3° C./minute) to −135° C. The samples were held at −135° C. for a minimum of 24 hours. The constructs were rewarmed in two stages, first, slow warming to −100° C. (approximately 30° C./minute) at the top of the mechanical storage freezer and then rapidly warmed to either 0° C. or ±−10° C. approximately 225° C./min) in a 30% ME2SO bath at room temperature. (2) The constructs in inserts are placed within the well of a deep well plate. There is 0.6 mL vitrification solution in the well and 0.2 mL solution in the insert. […]
Resazurin Assay: Was used to measure the metabolic activity and has the advantage of being non-toxic so constructs can be assessed before and several times after treatment. […]

Question: With `Cc1c(C)c2c(c(C)c1O)CC[C@@](C)(CCC[C@H](C)CCC[C@H](C)CCCC(C)C)O2` [α-tocopherol] as the compound, how does the “Effect of additive in culture medium on construct viability” value (“Effect of additive in culture medium” below) read?
Answer: improved viability

Question: And the “Effect of additive in culture medium” value (listed as αT)?
Answer: significant improvement

Question: How did the “Effect of additive in culture medium” value turn out when `CC(C)[C@H](NC(=O)c1ccc2ccccc2n1)C(=O)N[C@@H](CC(=O)O)C(=O)COc1c(F)cccc1F` [Q-VD-OPH, quinoline-Val-Asp-difluorophenoxymethyl ketone] was run?
Answer: improved viability

Question: What about the “Effect of additive in culture medium” value (listed as QVD) of the same compound?
Answer: significant improvement
